# Columns and labels:
# [1] = Competitive binding affinity to fluorescein-labeled HIV TAR RNA in presence of Escherichia coli tRNA by electrophoretic mobility shift assay; set-up: species or system Human immunodeficiency virus; conditions: read-out: Kd(app)
# [2] = Cytotoxicity against human Jurkat cells assessed as reduction in cell viability at 120 uM after 4 hrs by WST1 assay; assay type: toxicity, cell-based
# [3] = Drug uptake in human Jurkat cells assessed as mean fluorescence intensity at 120 uM after 15 mins in presence of bovine serum by propidium iodide staining based FACS analysis; assay type: ADME, cell-based; conditions: 0.25 h
# [4] = Drug uptake in human Jurkat cells assessed as mean fluorescence intensity at 7 uM after 15 mins in presence of bovine serum by propidium iodide staining based FACS analysis; assay type: ADME, cell-based; conditions: 0.25 h
smiles,measurement,setting,value
CNCCCC[C@H](NC(=O)[C@H](CCCNC(=N)N)NC(=O)CNC(=O)[C@H](Cc1ccc(O)cc1)NC(C)=O)C(=O)N[C@@H](CCCCN)C(=O)N[C@@H](CCCNC(=N)N)C(=O)N[C@@H](CCCNC(=N)N)C(=O)N[C@@H](CCC(N)=O)C(=O)N[C@@H](CCCNC(=N)N)C(=O)N[C@@H](CCCNC(=N)N)C(=O)N[C@@H](CCCNC(=N)N)C(N)=O,Kd,[1],264 nM
CC(=O)N[C@@H](Cc1ccc(O)cc1)C(=O)NCC(=O)N[C@@H](CCCNC(=N)N)C(=O)N[C@@H](CCCCN)C(=O)N[C@@H](CCCCN(C)C)C(=O)N[C@@H](CCCNC(=N)N)C(=O)N[C@@H](CCCNC(=N)N)C(=O)N[C@@H](CCC(N)=O)C(=O)N[C@@H](CCCNC(=N)N)C(=O)N[C@@H](CCCNC(=N)N)C(=O)N[C@@H](CCCNC(=N)N)C(N)=O,Kd,[1],280 nM
CNCCCC[C@H](NC(=O)[C@H](CCCCN)NC(=O)[C@H](CCCNC(=N)N)NC(=O)CNC(=O)[C@H](Cc1ccc(O)cc1)NC(=O)CCNC(=O)c1ccc2c(c1)C1(OC2=O)c2ccc(O)cc2Oc2cc(O)ccc21)C(=O)N[C@@H](CCCNC(=N)N)C(=O)N[C@@H](CCCNC(=N)N)C(=O)N[C@@H](CCC(N)=O)C(=O)N[C@@H](CCCNC(=N)N)C(=O)N[C@@H](CCCNC(=N)N)C(=O)N[C@@H](CCCNC(=N)N)C(=O)O,Activity,[2],Non-Toxic
CN(C)CCCC[C@H](NC(=O)[C@H](CCCCN)NC(=O)[C@H](CCCNC(=N)N)NC(=O)CNC(=O)[C@H](Cc1ccc(O)cc1)NC(=O)CCNC(=O)c1ccc2c(c1)C1(OC2=O)c2ccc(O)cc2Oc2cc(O)ccc21)C(=O)N[C@@H](CCCNC(=N)N)C(=O)N[C@@H](CCCNC(=N)N)C(=O)N[C@@H](CCC(N)=O)C(=O)N[C@@H](CCCNC(=N)N)C(=O)N[C@@H](CCCNC(=N)N)C(=O)N[C@@H](CCCNC(=N)N)C(=O)O,Drug uptake,[3],Active
same,Activity,[2],Non-Toxic
N=C(N)NCCC[C@H](NC(=O)[C@H](CCCNC(=N)N)NC(=O)[C@H](CCCNC(=N)N)NC(=O)[C@H](CCC(N)=O)NC(=O)[C@H](CCCNC(=N)N)NC(=O)[C@H](CCCNC(=N)N)NC(=O)[C@H](CCCCN)NC(=O)[C@H](CCCCN)NC(=O)[C@H](CCCNC(=N)N)NC(=O)CNC(=O)[C@H](Cc1ccc(O)cc1)NC(=O)CCNC(=O)c1ccc2c(c1)C1(OC2=O)c2ccc(O)cc2Oc2cc(O)ccc21)C(N)=O,Drug uptake,[4],Active
same,Drug uptake,[3],Active
same,Activity,[2],Non-Toxic
CNCCCC[C@H](NC(=O)[C@H](CCCCN)NC(=O)[C@H](CCCNC(=N)N)NC(=O)CNC(=O)[C@H](Cc1ccc(O)cc1)NC(C)=O)C(=O)N[C@@H](CCCNC(=N)N)C(=O)N[C@@H](CCCNC(=N)N)C(=O)N[C@@H](CCC(N)=O)C(=O)N[C@@H](CCCNC(=N)N)C(=O)N[C@@H](CCCNC(=N)N)C(=O)N[C@@H](CCCNC(=N)N)C(N)=O,Kd,[1],410 nM
CC(=O)NCCCC[C@H](NC(=O)[C@H](CCCNC(=N)N)NC(=O)CNC(=O)[C@H](Cc1ccc(O)cc1)NC(C)=O)C(=O)N[C@@H](CCCCN)C(=O)N[C@@H](CCCNC(=N)N)C(=O)N[C@@H](CCCNC(=N)N)C(=O)N[C@@H](CCC(N)=O)C(=O)N[C@@H](CCCNC(=N)N)C(=O)N[C@@H](CCCNC(=N)N)C(=O)N[C@@H](CCCNC(=N)N)C(N)=O,Kd,[1],437 nM
CC(=O)NCCCC[C@H](NC(=O)[C@H](CCCCN)NC(=O)[C@H](CCCNC(=N)N)NC(=O)CNC(=O)[C@H](Cc1ccc(O)cc1)NC(=O)CCNC(=O)c1ccc2c(c1)C1(OC2=O)c2ccc(O)cc2Oc2cc(O)ccc21)C(=O)N[C@@H](CCCNC(=N)N)C(=O)N[C@@H](CCCNC(=N)N)C(=O)N[C@@H](CCC(N)=O)C(=O)N[C@@H](CCCNC(=N)N)C(=O)N[C@@H](CCCNC(=N)N)C(=O)N[C@@H](CCCNC(=N)N)C(=O)O,Activity,[2],Non-Toxic
CC(=O)NCCCC[C@H](NC(=O)[C@H](CCCNC(=N)N)NC(=O)CNC(=O)[C@H](Cc1ccc(O)cc1)NC(=O)CCNC(=O)c1ccc2c(c1)C1(OC2=O)c2ccc(O)cc2Oc2cc(O)ccc21)C(=O)N[C@@H](CCCCN)C(=O)N[C@@H](CCCNC(=N)N)C(=O)N[C@@H](CCCNC(=N)N)C(=O)N[C@@H](CCC(N)=O)C(=O)N[C@@H](CCCNC(=N)N)C(=O)N[C@@H](CCCNC(=N)N)C(=O)N[C@@H](CCCNC(=N)N)C(=O)O,Activity,[2],Non-Toxic
CN(C)CCCC[C@H](NC(=O)[C@H](CCCNC(=N)N)NC(=O)CNC(=O)[C@H](Cc1ccc(O)cc1)NC(=O)CCNC(=O)c1ccc2c(c1)C1(OC2=O)c2ccc(O)cc2Oc2cc(O)ccc21)C(=O)N[C@@H](CCCCN)C(=O)N[C@@H](CCCNC(=N)N)C(=O)N[C@@H](CCCNC(=N)N)C(=O)N[C@@H](CCC(N)=O)C(=O)N[C@@H](CCCNC(=N)N)C(=O)N[C@@H](CCCNC(=N)N)C(=O)N[C@@H](CCCNC(=N)N)C(=O)O,Drug uptake,[4],Active
same,Drug uptake,[3],Active
same,Activity,[2],Non-Toxic
CC(=O)NCCCC[C@H](NC(=O)[C@H](CCCCN)NC(=O)[C@H](CCCNC(=N)N)NC(=O)CNC(=O)[C@H](Cc1ccc(O)cc1)NC(C)=O)C(=O)N[C@@H](CCCNC(=N)N)C(=O)N[C@@H](CCCNC(=N)N)C(=O)N[C@@H](CCC(N)=O)C(=O)N[C@@H](CCCNC(=N)N)C(=O)N[C@@H](CCCNC(=N)N)C(=O)N[C@@H](CCCNC(=N)N)C(N)=O,Kd,[1],371 nM
C[N+](C)(C)CCCC[C@H](NC(=O)[C@H](CCCCN)NC(=O)[C@H](CCCNC(=N)N)NC(=O)CNC(=O)[C@H](Cc1ccc(O)cc1)NC(=O)CCNC(=O)c1ccc2c(c1)C1(OC2=O)c2ccc(O)cc2Oc2cc(O)ccc21)C(=O)N[C@@H](CCCNC(=N)N)C(=O)N[C@@H](CCCNC(=N)N)C(=O)N[C@@H](CCC(N)=O)C(=O)N[C@@H](CCCNC(=N)N)C(=O)N[C@@H](CCCNC(=N)N)C(=O)N[C@@H](CCCNC(=N)N)C(=O)O,Drug uptake,[3],Active
same,Activity,[2],Non-Toxic
CC(=O)N[C@@H](Cc1ccc(O)cc1)C(=O)NCC(=O)N[C@@H](CCCNC(=N)N)C(=O)N[C@@H](CCCCN(C)C)C(=O)N[C@@H](CCCCN)C(=O)N[C@@H](CCCNC(=N)N)C(=O)N[C@@H](CCCNC(=N)N)C(=O)N[C@@H](CCC(N)=O)C(=O)N[C@@H](CCCNC(=N)N)C(=O)N[C@@H](CCCNC(=N)N)C(=O)N[C@@H](CCCNC(=N)N)C(N)=O,Kd,[1],183 nM
CC(=O)N[C@@H](Cc1ccc(O)cc1)C(=O)NCC(=O)N[C@@H](CCCNC(=N)N)C(=O)N[C@@H](CCCCN)C(=O)N[C@@H](CCCC[N+](C)(C)C)C(=O)N[C@@H](CCCNC(=N)N)C(=O)N[C@@H](CCCNC(=N)N)C(=O)N[C@@H](CCC(N)=O)C(=O)N[C@@H](CCCNC(=N)N)C(=O)N[C@@H](CCCNC(=N)N)C(=O)N[C@@H](CCCNC(=N)N)C(N)=O,Kd,[1],599 nM
CC(=O)N[C@@H](Cc1ccc(O)cc1)C(=O)NCC(=O)N[C@@H](CCCNC(=N)N)C(=O)N[C@@H](CCCC[N+](C)(C)C)C(=O)N[C@@H](CCCCN)C(=O)N[C@@H](CCCNC(=N)N)C(=O)N[C@@H](CCCNC(=N)N)C(=O)N[C@@H](CCC(N)=O)C(=O)N[C@@H](CCCNC(=N)N)C(=O)N[C@@H](CCCNC(=N)N)C(=O)N[C@@H](CCCNC(=N)N)C(N)=O,Kd,[1],168 nM
C[N+](C)(C)CCCC[C@H](NC(=O)[C@H](CCCNC(=N)N)NC(=O)CNC(=O)[C@H](Cc1ccc(O)cc1)NC(=O)CCNC(=O)c1ccc2c(c1)C1(OC2=O)c2ccc(O)cc2Oc2cc(O)ccc21)C(=O)N[C@@H](CCCCN)C(=O)N[C@@H](CCCNC(=N)N)C(=O)N[C@@H](CCCNC(=N)N)C(=O)N[C@@H](CCC(N)=O)C(=O)N[C@@H](CCCNC(=N)N)C(=O)N[C@@H](CCCNC(=N)N)C(=O)N[C@@H](CCCNC(=N)N)C(=O)O,Drug uptake,[4],Active
same,Drug uptake,[3],Active
same,Activity,[2],Non-Toxic
CNCCCC[C@H](NC(=O)[C@H](CCCNC(=N)N)NC(=O)CNC(=O)[C@H](Cc1ccc(O)cc1)NC(=O)CCNC(=O)c1ccc2c(c1)C1(OC2=O)c2ccc(O)cc2Oc2cc(O)ccc21)C(=O)N[C@@H](CCCCN)C(=O)N[C@@H](CCCNC(=N)N)C(=O)N[C@@H](CCCNC(=N)N)C(=O)N[C@@H](CCC(N)=O)C(=O)N[C@@H](CCCNC(=N)N)C(=O)N[C@@H](CCCNC(=N)N)C(=O)N[C@@H](CCCNC(=N)N)C(=O)O,Drug uptake,[4],Active
same,Drug uptake,[3],Active
same,Activity,[2],Non-Toxic

# Source: ChEMBL document CHEMBL3860082, “Effect of lysine methylation and acetylation on the RNA recognition and cellular uptake of Tat-derived peptides” (Bioorg Med Chem, 2016)
